Assay results: PubChem BioAssay (NCI)
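Protocol summary: plate cells (96-well), add compound at 5 concentrations, incubate 48 h, interpolate endpoints linearly. GI50 marks 50% less growth. TGI: total growth inhibition.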

How the values were obtained:
Assay in all cases: inhibition of tumour cell growth, NCI panel, 48 h
HOP-92 NSCLC = test system: HOP-92 NSCLC
LOX IMVI melanoma = test system: LOX IMVI melanoma
K-562 leukemia = test system: K-562 leukemia
U251 CNS = test system: U251 CNS
PC-3 prostate = test system: PC-3 prostate
A549 NSCLC = test system: A549 NSCLC
SW-620 colon = test system: SW-620 colon
NCI/ADR-RES ovarian = test system: NCI/ADR-RES ovarian
UO-31 renal = test system: UO-31 renal
M14 melanoma = test system: M14 melanoma
TK-10 renal = test system: TK-10 renal
NCI-H522 lung = test system: NCI-H522 lung
KM12 colon = test system: KM12 colon
786-0 renal = test system: 786-0 renal
NCI-H23 lung = test system: NCI-H23 lung
SR leukemia = test system: SR leukemia
MDA-MB-231 breast = test system: MDA-MB-231 breast
HL-60(TB) leukemia = test system: HL-60(TB) leukemia
HS 578T breast = test system: HS 578T breast
SF-539 CNS = test system: SF-539 CNS
SK-OV-3 ovarian = test system: SK-OV-3 ovarian
SF-295 CNS = test system: SF-295 CNS
UACC-257 melanoma = test system: UACC-257 melanoma
SF-268 CNS = test system: SF-268 CNS
OVCAR-4 ovarian = test system: OVCAR-4 ovarian
MDA-MB-435 = test system: MDA-MB-435
SK-MEL-28 melanoma = test system: SK-MEL-28 melanoma
NCI-H226 lung = test system: NCI-H226 lung
HCC-2998 colon = test system: HCC-2998 colon
CAKI-1 renal = test system: CAKI-1 renal
IGROV1 ovarian = test system: IGROV1 ovarian
DU-145 prostate = test system: DU-145 prostate
OVCAR-8 ovarian = test system: OVCAR-8 ovarian
RPMI-8226 leukemia = test system: RPMI-8226 leukemia
HT29 colon = test system: HT29 colon
HCT-116 colon = test system: HCT-116 colon
EKVX NSCLC = test system: EKVX NSCLC
SK-MEL-5 melanoma = test system: SK-MEL-5 melanoma
HCT-15 colon = test system: HCT-15 colon
MOLT-4 leukemia = test system: MOLT-4 leukemia
NCI-H460 lung = test system: NCI-H460 lung
SN12C renal = test system: SN12C renal
CCRF-CEM leukemia = test system: CCRF-CEM leukemia
OVCAR-5 ovarian = test system: OVCAR-5 ovarian
MCF7 breast = test system: MCF7 breast
BT-549 breast = test system: BT-549 breast
OVCAR-3 ovarian = test system: OVCAR-3 ovarian
SK-MEL-2 melanoma = test system: SK-MEL-2 melanoma
UACC-62 melanoma = test system: UACC-62 melanoma
COLO 205 colon = test system: COLO 205 colon
A498 renal = test system: A498 renal
ACHN renal = test system: ACHN renal
RXF 393 renal = test system: RXF 393 renal

c1ccc2c(c1)nc1n2sc2nc3ccccc3n21
TGI (HOP-92 NSCLC): > 100 µM
TGI (LOX IMVI melanoma): > 100 µM
TGI (K-562 leukemia): > 100 µM
TGI (U251 CNS): > 100 µM
TGI (PC-3 prostate): > 100 µM
TGI (A549 NSCLC): > 100 µM
TGI (SW-620 colon): > 100 µM
TGI (NCI/ADR-RES ovarian): > 100 µM
TGI (UO-31 renal): > 100 µM
TGI (M14 melanoma): > 100 µM
TGI (TK-10 renal): > 100 µM
TGI (NCI-H522 lung): > 100 µM
TGI (KM12 colon): > 100 µM
TGI (786-0 renal): > 100 µM
TGI (NCI-H23 lung): > 100 µM
TGI (SR leukemia): > 100 µM
TGI (MDA-MB-231 breast): > 100 µM
TGI (HL-60(TB) leukemia): > 100 µM
TGI (HS 578T breast): > 100 µM
TGI (SF-539 CNS): > 100 µM
TGI (SK-OV-3 ovarian): > 100 µM
TGI (SF-295 CNS): > 100 µM
TGI (UACC-257 melanoma): > 100 µM
TGI (SF-268 CNS): > 100 µM
TGI (OVCAR-4 ovarian): > 100 µM
TGI (MDA-MB-435): > 100 µM
TGI (SK-MEL-28 melanoma): > 100 µM
TGI (NCI-H226 lung): > 100 µM
TGI (HCC-2998 colon): > 100 µM
TGI (CAKI-1 renal): > 100 µM
TGI (IGROV1 ovarian): > 100 µM
TGI (DU-145 prostate): > 100 µM
TGI (OVCAR-8 ovarian): > 100 µM
TGI (RPMI-8226 leukemia): > 100 µM
TGI (HT29 colon): > 100 µM
TGI (HCT-116 colon): > 100 µM
TGI (EKVX NSCLC): > 100 µM
TGI (SK-MEL-5 melanoma): > 100 µM
TGI (HCT-15 colon): > 100 µM
TGI (MOLT-4 leukemia): > 100 µM
TGI (NCI-H460 lung): > 100 µM
TGI (SN12C renal): > 100 µM
TGI (CCRF-CEM leukemia): > 100 µM
TGI (OVCAR-5 ovarian): > 100 µM
TGI (MCF7 breast): > 100 µM
TGI (BT-549 breast): > 100 µM
TGI (OVCAR-3 ovarian): > 100 µM
TGI (SK-MEL-2 melanoma): > 100 µM
TGI (UACC-62 melanoma): 79 µM
TGI (COLO 205 colon): > 100 µM

C(#Cc1cnccn1)/C=C\C#Cc1cnccn1
GI50 (HOP-92 NSCLC): 31.1 µM
TGI (HOP-92 NSCLC): 83.9 µM
GI50 (LOX IMVI melanoma): 1.65 µM
TGI (LOX IMVI melanoma): 10.5 µM
GI50 (K-562 leukemia): 4.18 µM
TGI (K-562 leukemia): > 100 µM
GI50 (PC-3 prostate): 29.7 µM
TGI (PC-3 prostate): 97.3 µM
GI50 (A549 NSCLC): 15.6 µM
TGI (A549 NSCLC): 42.2 µM
GI50 (SW-620 colon): 2.87 µM
TGI (SW-620 colon): 6.88 µM
GI50 (NCI/ADR-RES ovarian): 7.46 µM
TGI (NCI/ADR-RES ovarian): 44.3 µM
GI50 (UO-31 renal): 36 µM
TGI (UO-31 renal): > 100 µM
GI50 (M14 melanoma): 1.72 µM
TGI (M14 melanoma): 3.86 µM
GI50 (A498 renal): 27.8 µM
TGI (A498 renal): 50.7 µM
GI50 (NCI-H522 lung): 2.4 µM
TGI (NCI-H522 lung): 18.1 µM
GI50 (KM12 colon): 3.43 µM
TGI (KM12 colon): 22.4 µM
GI50 (786-0 renal): 10.7 µM
TGI (786-0 renal): 29 µM
GI50 (NCI-H23 lung): 1.65 µM
TGI (NCI-H23 lung): 3.79 µM
GI50 (ACHN renal): 16 µM
TGI (ACHN renal): 40 µM
GI50 (SR leukemia): 3.54 µM
TGI (SR leukemia): > 100 µM
GI50 (MDA-MB-231 breast): 4.4 µM
TGI (MDA-MB-231 breast): 20.7 µM
GI50 (HL-60(TB) leukemia): 24.1 µM
TGI (HL-60(TB) leukemia): > 100 µM
GI50 (HS 578T breast): 31.6 µM
TGI (HS 578T breast): > 100 µM
GI50 (SF-539 CNS): 15.4 µM
TGI (SF-539 CNS): 46.1 µM
GI50 (SF-295 CNS): 15 µM
TGI (SF-295 CNS): 32.1 µM
GI50 (UACC-257 melanoma): 7.43 µM
TGI (UACC-257 melanoma): 27.1 µM
GI50 (SF-268 CNS): 22.8 µM
TGI (SF-268 CNS): > 100 µM
GI50 (MDA-MB-435): 7.72 µM
TGI (MDA-MB-435): 33.1 µM
GI50 (NCI-H226 lung): 23.3 µM
TGI (NCI-H226 lung): 68.1 µM
GI50 (HCC-2998 colon): 3.63 µM
TGI (HCC-2998 colon): 11.5 µM
GI50 (CAKI-1 renal): 2.14 µM
TGI (CAKI-1 renal): 6.92 µM
GI50 (IGROV1 ovarian): 33.1 µM
TGI (IGROV1 ovarian): > 100 µM
GI50 (DU-145 prostate): 19.2 µM
TGI (DU-145 prostate): 72 µM
GI50 (OVCAR-8 ovarian): 12.5 µM
TGI (OVCAR-8 ovarian): > 100 µM
GI50 (RPMI-8226 leukemia): 8.49 µM
TGI (RPMI-8226 leukemia): 43.8 µM
GI50 (EKVX NSCLC): 3.69 µM
TGI (EKVX NSCLC): 16 µM
GI50 (SK-MEL-5 melanoma): 19.8 µM
TGI (SK-MEL-5 melanoma): 39.9 µM
GI50 (HCT-15 colon): 2.74 µM
TGI (HCT-15 colon): 10.6 µM
GI50 (MOLT-4 leukemia): 11.4 µM
TGI (MOLT-4 leukemia): > 100 µM
GI50 (NCI-H460 lung): 19.4 µM
TGI (NCI-H460 lung): > 100 µM
GI50 (SN12C renal): 13.6 µM
TGI (SN12C renal): 29.9 µM
GI50 (CCRF-CEM leukemia): 2.67 µM
TGI (CCRF-CEM leukemia): > 100 µM
GI50 (OVCAR-5 ovarian): 16.4 µM
TGI (OVCAR-5 ovarian): 31.7 µM
GI50 (MCF7 breast): 14.1 µM
TGI (MCF7 breast): > 100 µM
GI50 (BT-549 breast): 12 µM
TGI (BT-549 breast): 37.4 µM
GI50 (OVCAR-3 ovarian): 7.14 µM
TGI (OVCAR-3 ovarian): 28.4 µM
GI50 (SK-MEL-2 melanoma): 41.8 µM
TGI (SK-MEL-2 melanoma): > 100 µM
GI50 (RXF 393 renal): 13 µM
TGI (RXF 393 renal): 38.6 µM
GI50 (UACC-62 melanoma): 10.4 µM
TGI (UACC-62 melanoma): 22.3 µM
